Holding throughout (format): in vivo
For assay [1], the system named is barnyardgrass (Echinochloa crus-galli). The experiment in a line: Test A greenhouse herbicide test, pre- and postemergence. The following applies: 1000 g ai/ha, 0 to 100 scale. The essentials: (§1)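 Seeds sown in loam–sand blend got a preemergence directed soil spray of compound in non-phytotoxic solvent with surfactant. Postemergence treatment was given at 2–10 cm, one- to two-leaf stage. After ~10 d in greenhouse, injury was rated visually vs untreated controls, 0 (no effect) to 100 (complete control).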

The subject of a further assay is corn (Zea mays). The description is as above. The following applies: 1000 g ai/ha, 0 to 100 scale. The method, boiled down:
as §1

Assay [2] relates to crabgrass, large (large crabgrass, Digitaria sanguinalis). The description is as above. Conditions: 1000 g ai/ha, 0 to 100 scale. The essentials:
as §1

Assay [3] has as its system foxtail, giant (giant foxtail, Setaria faberii). The description is as above. The following applies: 1000 g ai/ha, 0 to 100 scale. The method, boiled down:
as §1

Assay [4] relates to momingglory (Ipomoea spp.). The assay is described as above. Conditions: 1000 g ai/ha, 0 to 100 scale. The essentials:
as §1

Assay [5] has as its system pigweed (Amaranthus retroflexus). Described as above. The following applies: 1000 g ai/ha, 0 to 100 scale. The method, boiled down:
as §1

Assay [6] deals with velvetleaf (Abutilon theophrasti). The assay is described as above. Conditions: Preemergence, 1000 g ai/ha; 0 to 100 scale, 0 no effect, 100 complete control. The method, boiled down: as §1
The test system of assay [7] is wheat (Triticum aestivum). Described as above. The following applies: 1000 g ai/ha, 0 to 100 scale. The method, boiled down:
as §1

Assay [8] relates to barnyardgrass (Echinochloa crus-galli). Kind of assay: Test B flooded paddy test. The following applies: 250 g ai/ha, Flood; visual rating on scale of 0 to 100 where 0 is no effect and 100 is complete control; 13 to 15 d after treatment. The essentials: (§2)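 Plants at the 2-leaf stage were flooded to 3 cm above soil, and test compounds were applied directly into the paddy water, which was held at that depth throughout. After 13 to 15 d in a greenhouse, injury was rated visually against untreated controls on a 0–100 scale (0 no effect, 100 complete control).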

Assay [9] has as its system ducksalad (Heteranthera limosa). Kind of assay: Test B flooded paddy test. The following applies: 250 g ai/ha, Flood; visual rating on scale of 0 to 100 where 0 is no effect and 100 is complete control; 13 to 15 d after treatment. The essentials:
as §2

For a further assay, the system named is rice (Oryza sativa). Kind of assay: Test B flooded paddy test. The following applies: 250 g ai/ha, Flood; visual rating on scale of 0 to 100 where 0 is no effect and 100 is complete control; 13 to 15 d after treatment. The essentials: as §2
The test system of assay [10] is sedge, umbrella (small-flower umbrella sedge, Cyperus difformis). Kind of assay: Test B flooded paddy test. Conditions: 250 g ai/ha, Flood; visual rating on scale of 0 to 100 where 0 is no effect and 100 is complete control; 13 to 15 d after treatment. The method, boiled down:
as §2

Setting [11] is: Postemergence, 0 is no effect, 100 is complete control.
The mark [12] stands for this setting: Preemergence, 0 no effect, 100 complete control.

Regarding “5-hydroxy-4-(5-methoxy-3-benzofuranyl)-2,6-dimethyl-3(2H)-pyridazinone [Compound 5]”, in assay [1] (setting [11]), the “Barnyardgrass plant response rating” value came out at 40. The “Plant response rating, Barnyardgrass” value is reported as 90 in [1] (setting [12]) and 0 in [8]. In addition, the “Corn plant response rating” value with corn (Zea mays) (setting [11]) turned out to be 0. For the same substance, the “Plant response rating, Corn” value in the assay on corn (Zea mays) (setting [12]) is reported as 0. In assay [2] (setting [11]), the “Crabgrass, Large plant response rating” value is recorded as 80. In [2] (setting [12]), the “Plant response rating, Crabgrass, Large” value is 90. Further, in assay [3] (setting [11]), the “Foxtail, Giant plant response rating” value came out at 80. In [3] (setting [12]), the “Plant response rating, Foxtail, Giant” value is 80. The “Morningglory plant response rating” value in assay [4] (setting [11]) is on record as 70. In addition, the “Plant response rating, Morningglory” value in assay [4] (setting [12]) worked out at 0. Also, the “Pigweed plant response rating” value in [5] (setting [11]) stood at 10. For the same substance, the “Plant response rating, Pigweed” value in assay [5] (setting [12]) is 0. Moreover, in [6], the “Plant response rating, Velvetleaf” value is 0. The “Wheat plant response rating” value in [7] (setting [11]) was found to be 0. For the same substance, the “Plant response rating, Wheat” value in assay [7] (setting [12]) is reported as 0. Moreover, the “Plant response rating, Ducksalad” value in [9] is given as 45. Besides, the “Plant response rating, Rice” value in the assay on rice (Oryza sativa) turned out to be 0. Moreover, the “Plant response rating, Sedge, Umbrella” value in assay [10] is given as 75.
